Test results: patent publication US8900626B2, “Transdermal drug delivery system and method of using the same” (Senju USA, Inc., priority 2011, dated 2014)
Where two headings read alike, the source gives them in different places.

Experimental: In vitro permeation study through hairless mouse skin to investigate the skin permeability of clobetasol propionate, amcinonide, betamethasone dipropionate, loteprednol etabonate, dexamethasone, prednisolone acetate and its metabolite (prednisolone).
Steroid patches were prepared according to the following procedure. The steroid (clobetasol propionate, amcinonide, betamethasone dipropionate, loteprednol etabonate, dexamethasone, or prednisolone acetate) was weighed in a clear polypropylene cup. 2 mL of ethyl acetate was added, and dispersed by ultrasonic wave using an ultrasonicator. DURO-TAK® 87-4098 was carefully added in the clear polypropylene cup. The components were mixed using a spatula, and then the lid of the cup was closed to avoid evaporation. A coating bar was adjusted to about 370 μm to control the thickness. The product material was carefully dispensed onto release liner near the coating bar. The coating process was started by moving the coating bar with the hand. The coated sheet was transferred to the oven and heated at 80° C. for 10±1 minutes. The dried sheet was removed from the oven, and laminated with the polyethylene terephthalate film. The thickness of the patch was checked.
The abdominal skin of 6 hairless, 8 week old, female mice were used for in vitro skin permeation experiment. (Horizontal cell, effective volume: 5 mL, effective area: 0.64 cm^2). […] The experimental temperature was controlled at 37° C., and 400 μL it of receptor solution was sampled at 1, 2, 3, 4, 5, 6, 9, 12, 22, 28, 34 and 48 hours. Thereafter, the same amount of the 40% polyethylene glycol 400 solution was added to the receptor cell. The concentration of each steroid in the sampled receptor solution was analyzed with HPLC.

[1] = female, hairless, mouse, 5 % (steroid in patch)

lag-time, times shorter than dexamethasone [1] [times]	lag-time, times shorter than prednisolone [1] [times]	steady-state penetration rate, times higher than that of dexamethasone [1] [times]	steady-state penetration rate, times higher than that of prednisolone [1] [times]	SMILES	lag-time, times shorter than dexamethasone [times]	lag-time, times shorter than prednisolone [times]	steady-state penetration rate, times higher than that of dexamethasone [times]	steady-state penetration rate, times higher than that of prednisolone [times]
4	5	10	20	CC(=O)OCC(=O)[C@@]12OC3(CCCC3)O[C@@H]1C[C@H]1[C@@H]3CCC4=CC(=O)C=C[C@]4(C)[C@@]3(F)[C@@H](O)C[C@@]12C [amcinonide]	–	–	–	–
–	–	–	–	CCC(=O)OCC(=O)[C@@]1(OC(=O)CC)[C@@H](C)C[C@H]2[C@@H]3CCC4=CC(=O)C=C[C@]4(C)[C@@]3(F)[C@@H](O)C[C@@]21C [betamethasone, betamethasone dipropionate]	3	4	3	6
4	5	7	12	CCOC(=O)O[C@]1(C(=O)OCCl)CC[C@H]2[C@@H]3CCC4=CC(=O)C=C[C@]4(C)[C@H]3[C@@H](O)C[C@@]21C [loteprednol, loteprednol etabonate]	–	–	–	–
6	7	8	14	CCC(=O)O[C@]1(C(=O)CCl)[C@@H](C)C[C@H]2[C@@H]3CCC4=CC(=O)C=C[C@]4(C)[C@@]3(F)[C@@H](O)C[C@@]21C [clobetasol, clobetasol propionate]	–	–	–	–
